# Experiments:
# H2882 = test: GI 50 determination, H2882; format: cell-based; settings: Homo sapiens, NCI-H2882
# Protocol: Cells of each type listed in Table 2 were seeded in chamber slides.
# BJ fibroblast cells = test: Telomere length assay (TRF), BJ fibroblasts long-term culture; format: cell-based, human; settings: 10 weeks, compared to untreated control
# Protocol: For long-term cellular experiments, HCT116 (1,000 cells/cm^2) and BJ (10,000 cells/cm^2) cells were fed with 6-thio-dG (1, 3, 10 μM) containing medium every three days. The cells were counted and replated every week for 10-16 weeks. Additionally, HCT116 cells (1,000 cells/cm^2) were fed with 6-thio-G (1, 3, 10 μM) every three days and each week cells were counted, collected for TRF (Telomere Restriction Fragment) analysis and replated. HCT116 cells, following treatment with 10 μM 6-thio-dG for 12 weeks, were then treated with a combination of 10 μM 6-thio-dG and 3 μM GRN163L for 2-4 weeks.
# HCT116 cells = settings: 3 μM
# Protocol: The TIF assay is based on the co-localization detection of DNA damage by an antibody against DNA damage markers such as gamma-H2AX and telomeres by the telomeric protein TRF2. Briefly, HCT116 cells were plated in 4-well chamber slides and after the cells attached to the surface, either 3 μM 6-thio-dG or 3 μM 6-thio-G was added to the medium at different time points (0, 30 min, 12 h, 24 h, 48 h, 72 h). Slides were rinsed once with PBS and fixed in 4% paraformaldehyde in PBS for 10 min. Then, cells were washed twice with PBS and permeabilized in 0.5% Nonidet-P40 in PBS, blocked with 0.5% Bovine Serum Albumin (BSA) and 0.2% fish gelatin in PBS for 30 min. gamma-H2AX (mouse) (Millipore, Billerica, MA) was diluted 1:1000 and TRF2 (rabbit) (Abcam, Cambridge, MA) was diluted 1:200 in blocking solution and this primary Ab mixture was incubated on cells for 2 h. After three washes with PBST (1×PBS in 0.1% Triton) and 3 washes with PBS, cells were incubated with Alexaflour 488 conjugated goat anti rabbit (1:500) (Invitrogen, Grand Island, NY) and Alexaflour 568 conjugated goat anti mouse (1:500) (Invitrogen) for 40 min, then washed six times with PBS. After drying, the slides were mounted with Vectashield mounting medium with DAPI (Vector Laboratories, Burlingame, CA). […] TIFs were quantified using Imaris software. […]
smiles,measurement,setting,value
"Nc1nc2c(ncn2[C@H]2C[C@H](O)[C@@H](CO)O2)c(=S)[nH]1 [6-thio-dG, 6-thio-2′-deoxyguanosine]",GI50,H2882,400 nM
same,telomere shortening (TRF),BJ fibroblast cells,did not show enhanced telomere shortening
same,increase in telomeric DNA damage as compared to 6-thio-G,HCT116 cells; after 72 h,2.8 fold
same,genomic DNA damage,HCT116 cells; compared to 6-thio-G,overall increase in genomic DNA damage
